Key:
[1] = test system: human colorectal adenocarcinoma COLO-205; test: Mitochondrial membrane permeability, JC-1 NC3000; format: cell-based; details: colo 205, versus negative control and camptothecin
Method: (§1) Cell culture conditions: The cell cultures utilized in this study were human colorectal adenocarcinoma COLO-205 (ATCC CCL-222). Cultures were maintained in RPMI 1640 media (ATCC, Manassas Va.) supplemented with 10% fetal bovine serum (ATCC) maintained at 37° C. with 95% air and 5% CO2. Apoptosis analysis by Annexin V expression: The annexin V assay allows detection of the migration phosphatidylserine (PS) to the exterior surface of cells, a characteristic event in apoptotic cells. Approximately 2.5×10^6 cells were treated for 24 hours with 10 μM and 20 μM doses of the BQ test compounds. Controls used in all assays were camptothecin 10 and vehicle (DMSO). […] Samples were analyzed by using the Nucleo Counter NC3000 system annexin V assay (Chemometec, Allerød, Denmark). This system allows for measurement and quantification of stained cells. […] This enzyme mediated event can be quantified by measuring DNA fragments. […] After treatment with BQ's at the test doses, cells were fixed with 70% ethanol for at least 24 hours, stained with 1 μg/ml DAPI, and analyzed using the NC3000 instrument measuring DAPI intensity. […] Approximately 1×10^6 cells were stained with 5,5′,6,6′-Tetrachloro-1,1′,3,3′-tetraethyl-imidacarbocyanine iodide (JC-1) and 1 μg/ml DAPI and analyzed in the NC3000. depolarized cells will fluoresce green while cells with stable mitochondrial membrane potential will fluoresce orange. […]

[2] = test system: human colorectal adenocarcinoma COLO-205; test: Apoptosis analysis by Annexin V expression; format: cell-based; details: 24 hours
Method: Cell culture conditions: The cell cultures utilized in this study were human colorectal adenocarcinoma COLO-205 (ATCC CCL-222). Cultures were maintained in RPMI 1640 media (ATCC, Manassas Va.) supplemented with 10% fetal bovine serum (ATCC) maintained at 37° C. with 95% air and 5% CO2. Apoptosis analysis by Annexin V expression: The annexin V assay allows detection of the migration phosphatidylserine (PS) to the exterior surface of cells, a characteristic event in apoptotic cells. Approximately 2.5×10^6 cells were treated for 24 hours with 10 μM and 20 μM doses of the BQ test compounds. Controls used in all assays were camptothecin 10 and vehicle (DMSO). After a 24-hour exposure, cells were stained with the annexin V conjugate, and propidium iodide (Biotium, Hayward, Calif.). Samples were analyzed by using the Nucleo Counter NC3000 system annexin V assay (Chemometec, Allerød, Denmark). This system allows for measurement and quantification of stained cells. A one-way ANOVA with post hoc Tukey test was also performed for all assays using GraphPad Prism version 6. DNA Fragmentation: DNA Fragmentation can be used as a marker for detection of cells undergoing apoptosis. This enzyme mediated event can be quantified by measuring DNA fragments. The Nucleo Counter NC3000 assay is based on removal of small DNA fragments and retention of 4′,6-diamidino-2-phenylindole (DAPI) stained higher weight fragments. After treatment with BQ's at the test doses, cells were fixed with 70% ethanol for at least 24 hours, stained with 1 μg/ml DAPI, and analyzed using the NC3000 instrument measuring DAPI intensity. Mitochondrial Membrane Permeability: Mitochondria permeability is central in the cell death process. The Nucleocounter NC3000 preset mitochondrial potential assay was used. Approximately 1×10^6 cells were stained with 5,5′,6,6′-Tetrachloro-1,1′,3,3′-tetraethyl-imidacarbocyanine iodide (JC-1) and 1 μg/ml DAPI and analyzed in the NC3000. depolarized cells will fluoresce green while cells with stable mitochondrial membrane potential will fluoresce orange. The change in ratio of green to orange fluorescence will determine the permeability state of the samples.

[3] = test system: human colorectal adenocarcinoma COLO-205; test: DNA fragmentation, NC3000 DAPI; format: cell-based; details: colo 205, versus negative control and camptothecin
Method: as §1

TK-6 cells = test: DNA fragmentation, NC3000 DAPI assay; format: cell-based, human; details: TK6, 48 hours
Method: (§2) Methods—Cultures were exposed for 48 hours to ABQ 48 at doses from 10 μM to 180 μM. Cells were harvested counted and assessed for cell viability implementing the Trypan Blue exclusion method using the Countess™ automated cell counter (Invitrogen Corp. Carlsbad, Calif.). The percentage of viable cells was calculated and graphed using Excel (Microsoft Corp. Redmond, Wash.). The mitochondrial membrane permeability assays was determined applying the Nucleocounter 3000, JC-1 assay. DNA fragmentation and cell cycle alterations were analyzed also through the Nucleocounter 3000 instrument.
(§3) Bioactivity 3. DNA fragmentation—Fragmentation of DNA as a marker for apoptosis is a commonly used assay. Analysis was performed applying the Nucleo counter NC3000 DNA fragmentation assay. Determination of the degree of DNA fragmentation is based on the retention of DAPI, a nucleic acid staining reagent. As described previously TK-6, and Toledo cells were kept in culture at the specified conditions. Cells where then treated with the tested compounds as previously described for 48 hours, after which nutritional media removed, cells harvested, fixed with 70% ethanol, incubated and stained with 1 μg/ml DAPI according to manufacturer's specifications for image analysis measuring DAPI intensity.
(§4) DNA fragmentation—Analysis was performed applying the Nucleo counter NC3000 DNA fragmentation assay. Determination of the degree of DNA fragmentation is based on the retention of DAPI, a nucleic acid staining reagent. Prior to treatment with the tested compounds A431 and TK-6 cells were kept in culture at the specified conditions. Cells where then treated with the tested compounds at the respective IC50 concentrations ([…] DNA fragmentation protocol was as recommended by Nucleo counter NC3000 manufacturer.

Toledo cells [4] = test: DNA fragmentation, NC3000 DAPI assay; format: cell-based, human; details: 48 hours
Method: as §2, §3

[5] = test system: NCI 60 human tumor cell line panel; test: NCI 60 human tumor cell line screen, one dose, whole panel; format: cell-based; details: for activity in the NCI 60 screen (growth inhibition, in words): one dose; for growth inhibition: 10 μM
Method: (§5) The National Cancer Institute (NCI) 60 human tumor cell line screen uses genetically characterized cells to determine biological activity against various cell lines. The panel is comprised of various cell types representing some of the most important cancer types. Two of the benzazolo[3,2-a]quinolinium salts i.e. NBQ 48 (NSC: D-763303) and ABQ 48 (NSC: D-763307) were tested at a dose of 10 μM on the entire cell line panel. The complete details of the NCI-60 cell line screening are describe in document Feasibility of drug screening with panels of human tumor cell lines using a microculture tetrazolium assay. Cancer research, 1988, 48(3), 589-601 (here included by reference).
(§6) Briefly, the cancer cells are grown in RPM1 1640 medium for 24 hours. Experimental compounds dissolved in DMSO are incubated with cells at 10 μM. After incubation the cells are stained with sulforhodamine B and the absorbance is read on a plate reader. The data reported as a mean graph are shown in the drawings FIG. 21 through FIGS. 24A-24I. For five dose study the test compound is incubated with cells at five different concentrations with 10-fold dilutions, from 10^−4 M, 10^−5, 10^−6, 10^−7, and 10^−8 M. Rest of the procedure is similar to the one dose experiment. After measurement, the (GI50) is calculated from time zero, control growth, and the five concentration absorbance. Inhibitory concentrations (LC50) represent the average of two experiments.
(§7) All the one-dose data of these compounds is reported as a mean of the growth percent of BQ exposed cells. One dose assay results are relative to control and number of cells at time 0. Growth inhibition values are placed from 0 to 100 whereas lethality is reflected in values less than 0. A sample obtained value of 100 means that no growth was inhibited. If the value is for example 30 then growth inhibition is 70%. If a sample has a value of −30 then this means 30% lethality, conversely if the value would be −100 the all cells in the sample are dead.

Toledo cells [6] = test: Cell cycle disruption, DAPI image analysis; format: cell-based, human; details: 48 hours
Method: as §2
(§8) Bioactivity 4. Cell Cycle disruption—Cell cycle effects are of great importance to the characterization of any novel therapeutic agent. This most fundamental cellular process is integral in determining the effects of any drug upon the target cells. After treatment with the tested BQs at previously described conditions, cells were harvested, and stained with 10 μg/ml DAPI (a DNA marker) according to manufacturer's specifications and analyzed with the instrument using image analysis to measure the DAPI intensity as an indicator of the DNA density.

U251 = test: NCI 60 human tumor cell line screen, one dose; format: cell-based; details: 10 μM
Method: as §5, §6, §7

KM12 = test: NCI 60 human tumor cell line screen, one dose; format: cell-based; details: 10 μM
Method: as §5, §6, §7

SK-MEL-5 = test: NCI 60 human tumor cell line screen, one dose; format: cell-based; details: 10 μM
Method: as §5, §6, §7

A431 cells = test: DNA fragmentation, NC3000 DAPI assay; format: cell-based, human; details: A431, ABQ 48 exposure
Method: as §2, §4

[7] = test system: A431 epitheloid carcinoma cells; test: Cell viability, Trypan Blue exclusion; format: cell-based, human
Method: (§9) Cell cultures—The three cell lines A431 epitheloid carcinoma cells (ATCC CRL-1555), the human TK-6 lymphoblasts cells (ATCC CRL-8015) and Toledo lymphoma (CRL-2631 respectively) were obtained from American Type Culture Collection (ATCC, Manassas, Va.) and cultured on RPMI 1640 (ATCC) cell culture media with 10% fetal bovine serum (ATCC). Cell cultures were maintained in a cell culture incubator at 37° C. and 5% CO2.
as §2

TK-6 lymphoblasts cells = test: Cell viability, Trypan Blue exclusion; format: cell-based, human
Method: as §9, §2

Toledo lymphoma cells = test: Cell viability, Trypan Blue exclusion; format: cell-based, human
Method: as §9, §2

TK6 [8] = test: Mitochondrial membrane permeability, JC-1 assay; format: cell-based, human
Method: as §2

A431 [9] = test: Mitochondrial membrane permeability, JC-1 assay; format: cell-based, human
Method: as §2

Toledo = test: Mitochondrial membrane permeability, JC-1 assay; format: cell-based, human
Method: as §2

TK6 [10] = test: Cell cycle disruption, DAPI image analysis; format: cell-based, human; details: Tk6, ABQ 48 exposure
Method: as §2
as §8, with “Cell” for “Bioactivity 4. Cell”, “agent.” for “agent. This most fundamental cellular process is integral in determining the effects of any drug upon the target cells.”, “BQS 95 and BQS 38” for “BQs”

A431 [11] = test: Cell cycle disruption, DAPI image analysis; format: cell-based, human; details: A431, ABQ 48 exposure
Method: as §2
as §8, with “Cell” for “Bioactivity 4. Cell”, “agent.” for “agent. This most fundamental cellular process is integral in determining the effects of any drug upon the target cells.”, “BQS 95 and BQS 38” for “BQs”

[12] = Cytotoxicity activity of CBQs; format: cell-based; details: human, A-431 cells; A-431 cell line

In the case of “7-(2,3,4-Trimethoxybenzyl)-3-aminostyrylbenzimidazo[3,2-a]quinolinium chloride [ABQ 234 TOM]”, the mitochondrial membrane permeabilization [1] is reported as “higher mitochondrial permeabilization in comparison with the negative control (water as vehicle) and similar to the positive control camptothecin”, the apoptotic cells ([2]; 10 μM) is reported as 91% and the apoptotic cells ([2]; 20 μM) is reported as 91%. For the same compound, the DNA fragmentation induction [3] was “did not present evidence of DNA fragmentation”.

For “7-(2,3,4-trimethoxybenzyl)-3-nitrobenzimidazo[3,2-a]quinolinium chloride [NBQ 234 TOM]”, the mitochondrial membrane permeabilization [1] was “higher mitochondrial permeabilization in comparison with the negative control (water as vehicle) but lower than cells treated with the positive control camptothecin”, the apoptotic cells ([2]; 10 μM) was 83.7% and the apoptotic cells ([2]; 20 μM) was 87.5%. The DNA fragmentation induction [3] was “higher DNA fragmentation in comparison with the negative control (water as vehicle) and higher than the positive control camptothecin”.

In the case of “7-benzyl-3-nitrobenzimidazolo[3,2-a]quinolinium chloride [NBQ-48]”, the DNA fragmentation (TK-6 cells) is reported as “higher than the negative control”, the DNA fragmentation (Toledo cells [4]) is reported as “higher than the negative control” and the “activity in the NCI 60 screen (growth inhibition, in words)” value [5] is reported as “less effective”.

With `Nc1ccc2c(ccc3n2c2ccccc2[n+]3Cc2ccccc2)c1.[Cl-]` [ABQ-48, 7-Benzyl-3-aminobenzimidazo[3,2-a]quinolinium chloride] the cell cycle alteration (Toledo cells [6]; listed as ABQ 48) was “observed”, the cell cycle alteration (Toledo cells [6]; listed as ABQ48) was “arrested at the S/G2 stage” and the growth inhibition (U251) was > 90%. The growth inhibition (KM12) was > 90%, the growth inhibition (SK-MEL-5) was > 90% and the DNA fragmentation (A431 cells) was “observed”. It also gave an IC90 ([7]; A431) of 90 µM, an IC50 ([7]; A431, 48 hours exposure) of 23 µM and an IC90 (TK-6 lymphoblasts cells; Tk6) of 135 µM. It also gave an IC50 (TK-6 lymphoblasts cells; Tk6, 48 hours exposure) of 8.6 µM, an IC90 (Toledo lymphoma cells) of 100 µM and an IC50 (Toledo lymphoma cells; 48 hours exposure) of 50 µM. The mitochondrial membrane permeability (TK6 [8]) was “observed”, the mitochondrial membrane permeability (A431 [9]) was “observed” and the mitochondrial membrane permeability (Toledo) was “observed”. The DNA fragmentation (TK-6 cells; listed as ABQ 48) was “observed”, the DNA fragmentation (TK-6 cells; listed as ABQ48) was “higher than the negative control” and the DNA fragmentation (Toledo cells [4]; listed as ABQ 48) was “observed”. The DNA fragmentation (Toledo cells [4]; listed as ABQ48) was “higher than the negative control”, the cell cycle alteration (TK6 [10]) was “observed” and the cell cycle alteration (A431 [11]) was “observed”. The growth inhibition ([5]; in no less than 8 cell lines) was “greater than 60%”, the growth inhibition ([5]; in several cell lines) was > 70% and the “activity in the NCI 60 screen (growth inhibition, in words)” value [5] was “highly effective”.

Compound `Cc1ccc2sc3ccc4c(Cl)cccc4[n+]3c2c1` [CBQ-108, 4-Chloro-10-methylbenzothiazolo[3,2-a]quinolinium chloride] has an IC50 [12] of 3.7 µM.
